This assay is described as follows: Inhibition of Bos taurus (bovine) heart cAMP-dependent phosphodiesterase assessed as inhibition of cyclic AMP to 5' AMP after 20 min by spectrophotometry.

Consider `COc1ccc2nc(-n3c(-c4ccccc4)nc4c(Br)cc(Br)cc4c3=O)sc2c1`, for which the IC50 was 2.12 mM.

For the molecule `Cc1cccc2sc(-n3c(-c4ccccc4)nc4c(Br)cc(Br)cc4c3=O)nc12`, the half-maximal inhibitory concentration (IC50) was 2.03 mM.

For the molecule `COc1cccc2sc(-n3c(-c4ccccc4)nc4c(Br)cc(Br)cc4c3=O)nc12`, the half-inhibitory concentration (IC50) stood at 2.07 mM.

`O=c1c2ccccc2nc(-c2ccccc2)n1-c1nc2ccccc2s1`: the IC50 turned out to be 2.1 mM.

In the case of `O=c1c2cc(Br)cc(Br)c2nc(-c2ccccc2)n1-c1nc2ccc([N+](=O)[O-])cc2s1`, the IC50 is 1.52 mM.

As for `Cc1ccc2sc(-n3c(-c4ccccc4)nc4c(Br)cc(Br)cc4c3=O)nc2c1`, the IC50 is 2.02 mM.

As for `COc1ccc2sc(-n3c(-c4ccccc4)nc4c(Br)cc(Br)cc4c3=O)nc2c1`, the IC50 was 2.09 mM.

As for `O=c1c2ccccc2nc(-c2ccccc2)n1-c1nc2ccc([N+](=O)[O-])cc2s1`, the half-inhibitory concentration (IC50) worked out at 2.64 mM.

As for `O=c1c2ccccc2nc(-c2ccccc2)n1-c1nc2ccc(Br)cc2s1`, the IC50 was 2.13 mM.

As for `CCOc1ccc2nc(-n3c(-c4ccccc4)nc4ccccc4c3=O)sc2c1`, the IC50 worked out at 2.43 mM.

Take `O=c1c2cc(Br)cc(Br)c2nc(-c2ccccc2)n1-c1nc2cc(Cl)ccc2s1`: the IC50 was 1.44 mM.

For the molecule `COc1ccc2nc(-n3c(-c4ccccc4)nc4ccccc4c3=O)sc2c1`, the IC50 was determined as 2.42 mM.

As to `COc1cccc2sc(-n3c(-c4ccccc4)nc4ccccc4c3=O)nc12`, the IC50 is 2.32 mM.

Consider `CCOc1cccc2sc(-n3c(-c4ccccc4)nc4c(Br)cc(Br)cc4c3=O)nc12`, for which the IC50 was 2.16 mM.

For the molecule `Cc1ccc2sc(-n3c(-c4ccccc4)nc4ccccc4c3=O)nc2c1`, the half-inhibitory concentration (IC50) was 2.27 mM.

For `CCOc1ccc2sc(-n3c(-c4ccccc4)nc4ccccc4c3=O)nc2c1`, the concentration for half-maximal inhibition (IC50) is 2.49 mM.

As to `O=c1c2cc(Br)cc(Br)c2nc(-c2ccccc2)n1-c1nc2ccccc2s1`, the IC50 stood at 1.93 mM.

In the case of `COc1ccc2sc(-n3c(-c4ccccc4)nc4ccccc4c3=O)nc2c1`, the IC50 worked out at 2.33 mM.

`CCOc1ccc2nc(-n3c(-c4ccccc4)nc4c(Br)cc(Br)cc4c3=O)sc2c1`: the IC50 stood at 2.12 mM.

For `CCOc1ccc2sc(-n3c(-c4ccccc4)nc4c(Br)cc(Br)cc4c3=O)nc2c1`, the IC50 was determined as 2.15 mM.

Take `Cc1cc(C)c2nc(-n3c(-c4ccccc4)nc4ccccc4c3=O)sc2c1`: the half-inhibitory concentration (IC50) worked out at 2.41 mM.

With `CCOc1cccc2sc(-n3c(-c4ccccc4)nc4ccccc4c3=O)nc12`, the IC50 turned out to be 2.42 mM.

As for `Cc1cccc2sc(-n3c(-c4ccccc4)nc4ccccc4c3=O)nc12`, the 50% inhibitory concentration (IC50) was 2.28 mM.

Take `O=c1c2cc(Br)cc(Br)c2nc(-c2ccccc2)n1-c1nc2ccc(Br)cc2s1`: the IC50 was 1.64 mM.

Turning to `Cc1cc(C)c2nc(-n3c(-c4ccccc4)nc4c(Br)cc(Br)cc4c3=O)sc2c1`, the IC50 came to 2.07 mM.

Turning to `O=c1c2ccccc2nc(-c2ccccc2)n1-c1nc2cc(Cl)ccc2s1`, the IC50 was found to be 2.11 mM.

(Values after BindingDB's records for doi:10.1007/s00044-008-9125-0 (n/a, 2009).)
